# Experimental data reported in US9139812B2, “CD49F promoting proliferation, multipotency and reprogramming of adult stem cells through PI3K/AKT/GSK3 pathway” (KANG STEM HOLDINGS CO., LTD, priority 2010, dated 2015).
# Entries after “also recorded” stand apart in the source; their conditions may differ.
# What was measured:
# Type in all cases: cell-based, human
# [1] = test system: adult stem cell spheres; test: Formation of adult stem cell (MSC) spheres with GSK3 or PI3K inhibitor; conditions: after 7 days; BIO 0.2 μM to 0.5 μM; LY294002 30 μM to 50 μM
# Protocol: To form adult stem cell spheres with preventing the adhesion of cells to the bottom of plastic container, 100 mm culture plate coated with 1% agarose (Nunc, Rochester, N.Y.) was used, and 1.5×10^5 adult stem cells were incubated in the growth medium as described in Preparation 1. A total of 15,000 cells were seeded per 1 ml of the medium, and adult stem cell spheres were incubated for one week. To prevent cell loss the culture solution was partially replaced only two times per week. After 7 days, adult stem cell spheres were collected by means of 40 μm pore cell strainer. Adult stem cell spheres as collected were washed with PBS, and gently centrifuged (800 rpm/5 min) for supplementary experiments.
# To identify the influence of GSK3 and PI3K signal transduction on sphere formation the inhibitory experiment was practiced. After treatment with BIO (Sigma-Aldrich) as GSK3 inhibitor at the concentration of 0 μM, 0.2 μM, or 0.5 μM, or with […] (Calbiochem, La Jolla, Calif.) as PI3K inhibitor at the concentration of 0 μM, 10 μM, 30 μM, or 50 μM the formation of adult stem cell spheres was observed. The number of adult stem cell spheres was counted after 7 days from culture.
# [2] = test system: adult stem cells overexpressing CD49f; test: Sphere formation assay in CD49f-overexpressing adult stem cells
# Protocol: (§1) Cells were seeded onto 24-well plate, and then the optical density was measured after 24 hour and 48 hours (*, P<0.05; **, P<0.01). FIG. 9(B) is the result of measuring a size of spheres in the presence or absence of CD49f, LY294002, BIO (*, P<0.05; **, P<0.01). FIG. 9(C) is the result of Western blot analysis for PI3K/AKT/GSK3β. CD49f expression vector was transduced into cells, which were than treated with LY294002 and BIO. Using phospho-specific antibodies for respective proteins the phosphorylation level of protein kinases was identified via Western blotting. 20 μg of protein lysate was loaded onto each well.
# (§2) In order to further confirm whether CD49f genetic expression is dependent on the activation of PI3K/AKT/GSK3 pathway, adult stem cells overexpressing CD49f were treated with LY294002 or BIO for 24 hours and 48 hours.
# [3] = test system: CD49f-overexpressed MSCs; test: Osteogenic differentiation of CD49f-overexpressed adult stem cells (Alizarin Red S, RT-PCR)
# Protocol: (§3) Osteogenesis was confirmed through Alizarin Red S staining.
# The monolayer-incubated cells (Comparative Example 1) and sphere-derived cells (Example 1) were incubated in DMEM containing 5% FBS, 50 μM L-ascorbate-2-phosphate, 0.1 μM dexamethasone and […] glycerolphosphate to induce differentiation into bone tissue. The cells were stained with Alizarin Red dye specific to calcium, and then the dye was extracted by treating with 100 mM cetylpyridinium chloride (Sigma-Aldrich) for one hour and used for quantitative analysis. The emission of solubilized Alizarin Red S was measured by means of spectrophotometer at 570 nm.
# (§4) Subsequently, whether in differentiation of adult stem cells into osteocytes and adipocytes CD49f expression can be regulated by PI3K/AKT/GSK3 pathway was identified. CD49f-overexpressed adult stem cells were treated with LY294002 and BIO, and then incubated in osteocyte and adipocyte media, respectively, to induce differentiation into osteogenic and adipogenic lineages.
# [4] = test system: PI3K/AKT/GSK3β; test: Western blot for PI3K, AKT, GSK3β phosphorylation in MSC spheres; conditions: spheres treated with 0.2 μM BIO, compared to monolayer-incubated adult stem cells
# Protocol: FIG. 6(A) is the result of Western blot analysis conducted after 7 days from sphere culture, wherein MSC spheres were collected by means of 40 μm strainer and then washed two times, and the phosphorylation levels of PI3K and its sequential downstream effectors, AKT and GSK3β were analyzed in monolayer cells, spheres, spheres treated with 0.2 μM BIO, and spheres treated with 30 μM LY294002.
# (§5) Western blot analysis for PI3K, AKT, and GSK3β was conducted according to the reference (Park et al., 2009). Adult stem cells incubated as monolayer or spheres were crushed in 50 mM Tris-HCl buffer comprising 1% Triton X-100 to which 1 mM phenylmethylsulfonyl fluoride, 1 mM aprotinin, 1 mM leupeptin, 1 mM antipain, and 0.1 mM sodium orthovanadate were added, 137 mM NaCl, 2 mM EDTA, and 0.1% SDS. The content of protein was determined using DC assay kit (Bio-Rad, USA), and then SDS-PAGE was conducted by loading a given amount of protein on 0-15% polyacrylamide gel. Then protein was transferred to nitrocellulose membrane at 50 V, 350 mA for 5 hours. All of antibodies were used according to the manufacturer's instructions, and the protein bands were identified using enhanced chemiluminescence detection kit (Amersham Pharmacia Biotech, Buckinghamshire, UK).
# [5] = test system: CD49f-overexpressed cells; test: Adipogenic differentiation of CD49f-overexpressed adult stem cells (Oil Red O, RT-PCR)
# Protocol: as §3
# The cell culture of monolayer-incubated cells (Comparative Example 1) and sphere-derived cells (Example 1) was conducted using DMEM containing 5% FBS, 1 μM dexamethasone, 10 μM insulin, 200 μM indomethacin, and 0.5 mM isobutylmethylxanthine to induce differentiation into adipose tissue.
# To determine the differentiation degree from fat accumulation present in cells, incubated cells were stained with Oil Red 0, and then Oil Red ° penetrated into cells was extracted with 100% isopropyl alcohol, and quantified with ELISA plate reader (EL800, Bio-Tek Instruments, USA) at OD 500. In addition, using RT-PCR the expression of C/EBP β, AP2, and PPARγ as adipose tissue-specific genes was examined.
# as §4
# [6] = test system: PI3K/AKT/GSK3β; test: Western blot for PI3K/AKT/GSK3β in CD49f-overexpressing adult stem cells
# Protocol: as §1
# as §5, with “All of antibodies were used according to the manufacturer's instructions, and the protein bands were identified using enhanced chemiluminescence detection kit (Amersham Pharmacia Biotech, Buckinghamshire, UK).” left out
# [7] = test system: adult stem cells; test: Survival of adult stem cells treated with BIO; conditions: BIO treatment
# [8] = test system: adult stem cells overexpressing CD49f; test: MTT cell proliferation assay in CD49f-overexpressing adult stem cells; conditions: 24 and 48 hours
# Protocol: as §2
# The proliferation potential of cells was measured by MTT assay analysis based on the ability of living cells to convert tetrazolium salt into purple formazan. Adult stem cells were transduced with either control vector or CD49f expression vector. After 24 hours from transduction, cells were seeded onto 24-well plate, and incubated in medium comprising LY294002 and BIO. After culture for 24 hours and 48 hours, […] of MTT stock solution (5 mg/ml, Sigma) was added to each well, and then further incubated at 37° C. for 4 hours. After removing the supernatant, […] of DMSO was added to each well so that insoluble purple formazan crystals can be dissolved […]. Then, cells were transferred to 96-well microplate and then the absorbance was measured using EL800 microplate reader (BIO-TEK Instruments, Winooski, Vt., U.S.A.) at wavelength of 540 nm. All of measurements were repeated three times.
structure (smiles),measurement,setting,value
O=C1Nc2cc(Br)ccc2/C1=C1/Nc2ccccc2/C1=N\O [BIO],number of adult stem cell spheres formed,[1],significantly increased
same,size of adult stem cell spheres,[1],significantly increased
same,number of adult stem cell spheres / sphere formation,[2],increased
same,propensity of adult stem cells to differentiate into osteocytes,[3]; BIO treatment,increases
same,mineral accumulation (Alizarin Red S staining),"[3]; CD49f-overexpressed MSCs, osteocyte induction",further increased
same,"mRNA levels of osteocyte-specific markers (BGLAP, VDR, MSX2, OSTEOCALCIN, RUNX2)","[3]; RT-PCR, CD49f-overexpressed adult stem cells",further increased; also recorded: upregulated
same,phospho-PI3K and phospho-AKT,[4],increased
same,"mRNA levels of adipocyte transcription factors (C/EBP β, aP2, PPARγ, LEPTIN)",[5]; RT-PCR,inhibited; also recorded: significantly reduced
same,lipid accumulation (Oil Red O staining),[5]; compared to untreated control group,inhibited
same,AKT phosphorylation,[6],induced phosphorylation
same,GSK3 phosphorylation,[6],induced phosphorylation
same,survival potential of adult stem cells,[7],does not adversely affect
same,growth rate / cell proliferation (MTT),[8],higher
